Structures are written as SMILES.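 How tested: cells in 96-well plates exposed to compound for 48 hours at five concentrations. Abbreviation: GI50, concentration required for 50% inhibition of growth.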 Active and inactive are the calls of the source. Rule as the data show it: active = GI50 up to about 1.1 µM and inactive = higher.

Among the test systems are PC-3; COLO 205; HCC 2998; IGROV-1; HT-29; Malme-3M; UO-31; SNB-75; A549; HL-60; SR; HCT-15; T47D; MCF7; TK-10; Hs-578T; CCRF-CEM; MOLT-4; HCT-116; NCI-H23.
Holding throughout (assay): DTP human tumour cell line panel, 48 h

Regarding `Cc1cc2c(cc1Cl)S(=O)(=O)OC(c1ccc([N+](=O)[O-])cc1)=N2`, the GI50 in the assay with PC-3, in the assay on COLO 205, in the assay with HCC 2998, with IGROV-1, in the assay with HT-29 and in the assay with Malme-3M was > 100 µM (inactive) in each case. Also, the GI50 is > 100 µM (inactive) with UO-31; 44.4 µM (inactive) in the assay with SNB-75; > 100 µM (inactive) in the assay with A549; > 100 µM (inactive) with HL-60; > 100 µM (inactive) in the assay with SR; over 100 µM in the assay with HCT-15. The GI50 with T47D, in the assay on MCF7, in the assay with TK-10, in the assay with Hs-578T, in the assay with CCRF-CEM and in the assay with MOLT-4 was > 100 µM (inactive) each time. Also, the GI50 in the assay on HCT-116 is > 100 µM (inactive).
As to `Nc1cc(S(=O)(=O)O)cc2ccc(S(=O)(=O)O)cc12`, the GI50 in the assay on PC-3, in the assay with COLO 205, in the assay on HCC 2998, in the assay on IGROV-1, in the assay on HT-29 and in the assay on Malme-3M was > 100 µM (inactive) in each case. In addition, the GI50 with NCI-H23, in the assay with UO-31, with SNB-75, in the assay with A549, in the assay with HL-60 and with SR was > 100 µM (inactive) throughout. In addition, the GI50 in the assay with HCT-15 was over 100 µM; in the assay with T47D, > 100 µM (inactive); with MCF7, > 100 µM (inactive); with TK-10 it was > 100 µM (inactive); in the assay with Hs-578T, > 100 µM (inactive); in the assay with CCRF-CEM it was > 100 µM (inactive). Also, the GI50 with HCT-116 is > 100 µM (inactive).
Regarding `Cc1ccc(NC(=O)c2cc(S(=O)(=O)N3CCNNC3=O)c(S)cc2Cl)cc1`, the GI50 in the assay on PC-3, with COLO 205, with HCC 2998, with IGROV-1, in the assay on Malme-3M and with UO-31 was > 100 µM (inactive) throughout. Further, the GI50 in the assay with SNB-75 was > 100 µM (inactive); in the assay on A549 it was > 100 µM (inactive); in the assay on HL-60, > 100 µM (inactive); with SR, > 100 µM (inactive); with HCT-15 it was over 100 µM; in the assay on T47D, 41.8 µM (inactive). Besides, the GI50 with MCF7 is > 100 µM (inactive); with TK-10, 93.8 µM (inactive); in the assay on Hs-578T, > 100 µM (inactive); in the assay on CCRF-CEM, > 100 µM (inactive); in the assay on MOLT-4, > 100 µM (inactive); in the assay with HCT-116, > 100 µM (inactive).
With `O=S(=O)(O)c1ccc2c(/N=N/c3ccccc3)c(O)c(S(=O)(=O)O)cc2c1`, the GI50 in the assay with PC-3, in the assay on COLO 205, with HCC 2998, in the assay with IGROV-1, in the assay on Malme-3M and with NCI-H23 was > 100 µM (inactive) in each case. For the same molecule, the GI50 in the assay with UO-31 is > 100 µM (inactive); in the assay on SNB-75, > 100 µM (inactive); with A549, > 100 µM (inactive); with HL-60, > 100 µM (inactive); with SR it was > 100 µM (inactive); with HCT-15 it was over 100 µM. Besides, the GI50 with T47D, in the assay on MCF7, in the assay with TK-10, with Hs-578T, in the assay on CCRF-CEM and in the assay on MOLT-4 was > 100 µM (inactive) each time. For the same molecule, in the assay with HCT-116, the GI50 is > 100 µM (inactive).

The term GI50 denotes the concentration that inhibits growth by half.
